Data taken from patent US20220017566A1, “TERPINOID DERIVATIVES AND USES THEREOF” (SICHUAN HAISCO PHARMACEUTICAL CO., LTD., priority 2018, published 2022).
Like-named read-outs stand apart in the source and are kept apart here.

Columns and labels:
CYP2C9 = target: T1, CYP2C9 (Homo sapiens, UniProt P11712); assay: CYP450 enzyme inhibition in liver microsomes (cocktail probe incubation); format: in vitro ADME; settings: species not given, 0.05-50 μM tested
T1 construct: studied in liver microsomes of CD-1 mouse, Sprague Dawley rat, Beagle dog, cynomolgus monkey, and human; from tissue; host or cells: liver microsomes
T1 sequence (P11712 whole entry): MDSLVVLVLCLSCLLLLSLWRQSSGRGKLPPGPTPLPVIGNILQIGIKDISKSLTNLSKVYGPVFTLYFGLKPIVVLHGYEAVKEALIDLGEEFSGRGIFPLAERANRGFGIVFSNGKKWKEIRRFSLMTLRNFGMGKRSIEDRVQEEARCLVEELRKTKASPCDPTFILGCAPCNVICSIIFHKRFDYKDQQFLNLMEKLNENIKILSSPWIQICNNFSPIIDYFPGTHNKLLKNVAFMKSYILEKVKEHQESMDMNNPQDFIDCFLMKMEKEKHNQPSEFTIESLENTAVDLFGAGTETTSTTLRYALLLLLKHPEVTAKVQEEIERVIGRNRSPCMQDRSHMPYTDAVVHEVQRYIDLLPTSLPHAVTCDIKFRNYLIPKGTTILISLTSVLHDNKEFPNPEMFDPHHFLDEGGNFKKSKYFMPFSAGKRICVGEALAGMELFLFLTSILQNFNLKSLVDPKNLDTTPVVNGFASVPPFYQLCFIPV
Protocol: (§1) The inhibition potential of test compounds towards major drug metabolizing CYP450 enzymes was studied in liver microsomes of CD-1 mouse, Sprague Dawley rat, Beagle dog, cynomolgus monkey, and human. The inhibition of CYP1A2, CYP2C9, CYP2C19, CYP2D6, and CYP3A4 was assessed using CYP450 specific probe reactions in a cocktail incubation. Seven concentrations of test compounds (0.05, 0.15, 0.5, 1.5, 5, 15, and 50 μM) were evaluated. In addition, known inhibitors for each probe reaction were included as positive controls and incubated at a single concentration above their respective IC50.

CYP3A4 = target: T2, CYP3A4 (Homo sapiens, UniProt P08684); assay: as above; format: in vitro ADME; settings: species not given, 0.05-50 μM tested
T2 construct: studied in liver microsomes of CD-1 mouse, Sprague Dawley rat, Beagle dog, cynomolgus monkey, and human; from tissue; host or cells: liver microsomes
T2 sequence (P08684 whole entry): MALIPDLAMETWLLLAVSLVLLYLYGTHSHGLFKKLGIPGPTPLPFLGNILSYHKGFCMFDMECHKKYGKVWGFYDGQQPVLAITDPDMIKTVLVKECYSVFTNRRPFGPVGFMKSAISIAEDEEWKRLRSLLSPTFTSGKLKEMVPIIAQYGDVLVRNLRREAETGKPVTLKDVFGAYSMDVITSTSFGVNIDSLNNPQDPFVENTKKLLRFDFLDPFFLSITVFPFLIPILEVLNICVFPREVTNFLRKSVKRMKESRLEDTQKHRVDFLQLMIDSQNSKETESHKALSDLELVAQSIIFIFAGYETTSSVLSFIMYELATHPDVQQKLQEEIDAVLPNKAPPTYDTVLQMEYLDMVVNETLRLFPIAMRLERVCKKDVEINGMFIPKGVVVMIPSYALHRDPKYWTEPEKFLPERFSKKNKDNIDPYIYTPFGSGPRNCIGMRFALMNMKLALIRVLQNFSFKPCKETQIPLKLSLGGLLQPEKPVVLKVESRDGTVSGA
Protocol: as §1

CYP1A2 = target: T3, CYP1A2 (Homo sapiens, UniProt P05177); assay: as above; format: in vitro ADME; settings: species not given, 0.05-50 μM tested
T3 construct: studied in liver microsomes of CD-1 mouse, Sprague Dawley rat, Beagle dog, cynomolgus monkey, and human; from tissue; host or cells: liver microsomes
T3 sequence (P05177 1-516): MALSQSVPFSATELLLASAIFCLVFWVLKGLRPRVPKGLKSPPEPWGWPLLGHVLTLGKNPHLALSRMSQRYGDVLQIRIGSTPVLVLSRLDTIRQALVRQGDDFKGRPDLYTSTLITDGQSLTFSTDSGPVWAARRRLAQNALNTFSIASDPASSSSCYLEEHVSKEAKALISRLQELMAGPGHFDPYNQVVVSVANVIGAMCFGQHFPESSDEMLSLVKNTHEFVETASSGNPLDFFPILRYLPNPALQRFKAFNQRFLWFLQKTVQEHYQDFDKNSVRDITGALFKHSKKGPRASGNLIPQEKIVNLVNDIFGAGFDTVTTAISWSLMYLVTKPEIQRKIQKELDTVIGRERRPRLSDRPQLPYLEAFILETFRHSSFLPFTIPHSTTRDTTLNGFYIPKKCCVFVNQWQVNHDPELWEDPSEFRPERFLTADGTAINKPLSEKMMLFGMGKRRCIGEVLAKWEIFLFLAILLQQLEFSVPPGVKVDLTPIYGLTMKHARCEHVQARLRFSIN
Protocol: as §1

CYP2C19 = target: T4, CYP2C19 (Homo sapiens, UniProt P33261); assay: as above; format: in vitro ADME; settings: species not given, 0.05-50 μM tested
T4 construct: studied in liver microsomes of CD-1 mouse, Sprague Dawley rat, Beagle dog, cynomolgus monkey, and human; from tissue; host or cells: liver microsomes
T4 sequence (P33261 whole entry): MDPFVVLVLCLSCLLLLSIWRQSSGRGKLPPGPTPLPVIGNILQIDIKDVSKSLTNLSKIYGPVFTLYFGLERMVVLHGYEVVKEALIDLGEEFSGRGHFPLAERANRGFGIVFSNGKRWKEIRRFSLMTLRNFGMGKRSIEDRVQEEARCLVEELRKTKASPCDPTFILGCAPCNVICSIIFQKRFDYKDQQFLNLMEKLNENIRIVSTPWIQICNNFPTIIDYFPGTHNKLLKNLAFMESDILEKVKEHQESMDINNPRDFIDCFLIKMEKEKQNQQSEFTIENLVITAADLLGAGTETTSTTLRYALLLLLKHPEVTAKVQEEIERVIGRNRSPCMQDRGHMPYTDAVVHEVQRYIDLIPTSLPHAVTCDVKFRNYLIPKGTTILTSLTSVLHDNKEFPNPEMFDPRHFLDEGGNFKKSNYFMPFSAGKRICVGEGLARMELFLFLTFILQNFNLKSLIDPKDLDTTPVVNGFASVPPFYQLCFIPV
Protocol: as §1

CYP2D6 = target: T5, CYP2D6 (Homo sapiens, UniProt P10635); assay: as above; format: in vitro ADME; settings: species not given, 0.05-50 μM tested
T5 construct: studied in liver microsomes of CD-1 mouse, Sprague Dawley rat, Beagle dog, cynomolgus monkey, and human; from tissue; host or cells: liver microsomes
T5 sequence (P10635 whole entry): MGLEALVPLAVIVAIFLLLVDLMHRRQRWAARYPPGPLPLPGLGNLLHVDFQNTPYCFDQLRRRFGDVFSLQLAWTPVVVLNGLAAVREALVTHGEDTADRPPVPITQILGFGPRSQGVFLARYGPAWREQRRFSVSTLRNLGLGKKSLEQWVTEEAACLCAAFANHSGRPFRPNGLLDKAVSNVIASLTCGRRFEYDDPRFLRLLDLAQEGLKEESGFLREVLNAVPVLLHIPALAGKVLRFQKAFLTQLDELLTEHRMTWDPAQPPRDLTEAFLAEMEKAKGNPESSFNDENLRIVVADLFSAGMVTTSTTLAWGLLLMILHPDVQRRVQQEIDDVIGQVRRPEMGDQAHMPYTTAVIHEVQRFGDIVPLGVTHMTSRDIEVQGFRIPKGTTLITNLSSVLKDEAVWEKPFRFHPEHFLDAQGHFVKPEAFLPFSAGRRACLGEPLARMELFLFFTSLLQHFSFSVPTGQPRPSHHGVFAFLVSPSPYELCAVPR
Protocol: as §1

[1] = test system: IFNγ-induced NO production in Raw 264.7 cells; assay: Nitric oxide assay: suppression of IFNγ-induced NO production (Griess nitrite, adjusted to live cell numbers); format: cell-based; settings: Mus musculus, RAW264.7, 2 h pretreatment, IFNγ 10 ng/ml for 24 hours
Protocol: Raw 264.7 cells were seeded in 96-well plates at a density of 30, 000 cells per well in DMEM+10% FBS and incubated overnight. The next day, cell media was replaced by DMEM+2% FBS. Cells were pretreated with DMSO or test compounds (top dose 100 nM, 1:4 serial dilution, 10-point) for 2 hours and then treated with recombinant mouse IFNγ (R&D, Cat# 485-MI-100) at a final concentration of 10 ng/ml for 24 hours. Nitrite levels were measured in culture media as a surrogate for nitric oxide using the Griess Reagent System (Promega, Cat# G2930). Cell viability was determined using CellTiter Glo reagents (Promega, Cat#G7572). The nitrite levels were adjusted to live cell numbers and inhibition percentage was calculated. The inhibition percentage was then plotted against compound concentration, and IC50 values were calculated using four-parameter algorithm in Graphpad Prism.

[2] = Pharmacokinetic studies in Sprague Dawley rats (oral gavage and IV); format: in vivo; settings: rat, male SD rats, plasma; for AUC(0-t): read-out: AUC0-24 h; for bioavailability: oral 5 mg/kg vs IV 1 mg/kg, read-out: Bioavailibility F %
Protocol: The pharmacokinetics of test compounds was evaluated in male SD rats when administered via oral gavage and IV injection. For oral dosing, compound was formulated in 0.5% methylcellulose and administered at doses of 5 mg/kg (3 rats per dose level) and volume of 10 mL/kg. For IV dosing, compound was formulated in 5% DMSO/5% Solutol/90% saline and administered to 3 rats at a dose of 1 mg/kg and a volume of 5 mL/kg. The rats were fasted overnight before administration. Plasma samples were collected predose and at 0.5, 1, 3, 6, 9, 12, and 24 hours postdose. The samples were analyzed by LC/MS/MS and the concentration of test compound at each timepoint was determined by linear regression. Pharmacokinetic parameters were calculated from the plasma concentrations using Pheonix WinNonlin.

Row | Compound | IC50 (CYP2C9) [nM] | IC50 (CYP3A4) [nM] | IC50 (CYP1A2) [nM] | IC50 (CYP2C19) [nM] | IC50 (CYP2D6) [nM] | IC50 [1] [nM] | C0 ([2]; IV (1 mg/kg)) [ng/mL] | clearance ([2]; IV (1 mg/kg)) [mL/min/kg] | half-life ([2]; IV (1 mg/kg)) [h] | AUC(0-t) ([2]; IV (1 mg/kg)) [ng·h/mL] | Cmax ([2]; Oral (5 mg/kg)) [ng/mL] | half-life ([2]; Oral (5 mg/kg)) [h] | AUC(0-t) ([2]; Oral (5 mg/kg)) [ng·h/mL] | bioavailability [2] [%]
1 | Cc1noc([C@@]2(C)CC[C@]3(C)CC[C@]4(C)[C@H](C(=O)C=C5[C@@]6(C)C=C(C#N)C(=O)C(C)(C)[C@@H]6CC[C@]54C)[C@@H]3C2)n1 [Example 15, (4aR,6aS,6bR,8aS,11S,12aS,12bR,14bS)-4,4,6a,6b,8a,11,14b-heptamethyl-11-(3-methyl-1,2,4-oxadiazol-5-yl)-3,13-dioxo-3,4,4a,5,6,6a,6b,7,8,8a,9,10,11,12,12a,12b,13,14b-octadecahydropicene-2-carbonitrile] | 2600 | 1600 | > 50000 | 13600 | 36200 | < 10 | 380 | 47 | 2.8 | 329 | 89 | 1.7 | 412 | 25
2 | CC1(C)C(=O)C(C#N)=C[C@]2(C)C3=CC(=O)[C@@H]4[C@@H]5C[C@@](C)(c6nnc(C(=O)NC7CC7)o6)CC[C@]5(C)CC[C@@]4(C)[C@]3(C)CC[C@@H]12 [Example 19, 5-((2S,4aS,6aR,6bS,8aR,12aS,14aR,14bS)-11-cyano-2,4a,6a,6b,9,9,12a-heptamethyl-10,14-dioxo-1,2,3,4,4a,5,6,6a,6b,7,8,8a,9,10,12a,14,14a,14b-octadecahydropicen-2-yl)-N-cyclopropyl-1,3,4-oxadiazole-2-carboxamide] | 1200 | 2100 | > 50000 | 5800 | 8400 | < 10 | 703 | 32.5 | 1.8 | 496 | 63 | 4.5 | 364 | 14.7
3 | CC1(C)C(=O)C(C#N)=C[C@]2(C)C3=CC(=O)[C@@H]4[C@@H]5C[C@@](C)(N6CCOC6=O)CC[C@]5(C)CC[C@@]4(C)[C@]3(C)CC[C@@H]12 [Example 13, (4aR,6aS,6bR,8aS,11S,12aS,12bR,14bS)-4,4,6a,6b,8a,11,14b-heptamethyl-3,13-dioxo-11-(2-oxooxazolidin-3-yl)-3,4,4a,5,6,6a,6b,7,8,8a,9,10,11,12,12a,12b,13,14b-octadecahydropicene-2-carbonitrile] | 1900 | 1900 | > 50000 | 11700 | > 50000 | < 10 | 355 | 78.9 | 2.2 | 206 | 45 | 2.1 | 197 | 19.2
4 | CC1(C)C(=O)C(C#N)=C[C@]2(C)C3=CC(=O)[C@@H]4[C@@H]5C[C@@](C)(N6CCCC6=O)CC[C@]5(C)CC[C@@]4(C)[C@]3(C)CC[C@@H]12 [Example 12, (4aR,6aS,6bR,8aS,11S,12aS,12bR,14bS)-4,4,6a,6b,8a,11,14b-heptamethyl-3,13-dioxo-11-(2-oxopyrrolidin-1-yl)-3,4,4a,5,6,6a,6b,7,8,8a,9,10,11,12,12a,12b,13,14b-octadecahydropicene-2-carbonitrile] | 2700 | 2800 | > 50000 | 9700 | > 50000 | < 10 | 359 | 85.7 | 1.7 | 191 | 29 | 4.1 | 94 | 9.9
